{"source": "patent US8765787B2", "about": "“Methods of treatment of xerophthalmia with self-preserving ocular formulations of norketotifen” (Bridge Pharma, Inc., priority 2008, dated 2014)", "key": {"[1]": {"test": "Solubility of norketotifen (saturated solutions, HPLC)", "format": "physicochemical", "settings": "for solubility: thermodynamic from solid", "procedure": "Saturated solutions of norketotifen were prepared at room temperature by stirring, overnight sonication and filtering of the saturated supernatant solutions. An HPLC method for the determination of concentrations of norketotifen was developed:\nThe HPLC system was a HP 1050 with a variable wavelength detector. […] The relative standard deviation was approximately 0.3 percent for the main peak area."}, "[2]": {"system": "human granulocytes (buffy coat)", "test": "Inhibition of histamine release from granulocytes (A23187-induced granulocyte activation)", "format": "cell-based", "settings": "for IC50: 20 min, A23187 (5 μM), 20 min/37° C.", "procedure": "In the present studies, effects on granulocyte activation was studied as inhibition of histamine release from human granulocytes (buffy coat) by norketotifen. The method is a modification of the method described by Nolte, H. et al., 1988. Granulocytes were obtained from human volunteers and mediator release was induced by incubation (20 min/37° C.) with the calcium ionophore A23187 (5 μM) in the presence or absence of a test article. Histamine was selected as an indicator for mediator release because of the ease with which histamine can be analyzed, using commercially available kits. The test articles were evaluated, in duplicate, at five concentrations and IC50-values were calculated.\nThe calcium ionophore A23187 was used to increase intracellular calcium concentration of the granulocytes."}, "[3]": {"test": "Stability of norketotifen formulations", "format": "physicochemical", "settings": "pH 6.5; accelerated testing (55° C.)", "procedure": "Stability of norketotifen formulations was studied after incubation at various temperatures, acidity and time intervals. The concentrations of norketotifen were measured after incubation periods of various lengths."}, "rabbit eyes": {"system": "rabbit eyes", "test": "Ocular irritation test", "format": "in vivo, New Zealand White rabbits", "settings": "excipient-free solution 0.0345% in water or saline; rabbit eye, seven instillations of 0.1 ml", "procedure": "New Zealand White rabbits, weighing 2 to 4 kilograms were used. Test formulation, in volumes of 0.1 ml were instilled into the conjunctival sac of six rabbit eyes of groups. Said volume of each formulation was repeatedly instilled every 30 minutes for 3 hours (a total of seven instillation into the eyes of rabbits. Ocular irritation was scored according to both Draize et al., 1944 and Kay and Calandra, 1962. Scorings were performed before each instillation and 30 minutes, 3 hours and 24 hours after the last instillation.\nThe formulations of norketotifen in Table 7 were prepared and tested and the results were compared with irritation by norketotifen in excipient-free solutions. […] In the present study, norketotifen HF was dissolved to an intended concentration of 0.276 percent in the various solutions, using stirring and over-night sonication at room temperature. After sonication, all solutions were filtered through a 0.45 μm non-pyrogenic MILLEX® HV filter unit before being used for ocular tests. Thus, all of the solutions used for the ocular irritation tests in Table 7 contained the highest possible concentrations of norketotifen HF.\nSolutions of norketotifen were similarly prepared in excipient-free solutions containing only norketotifen HF 0.0345 percent by weight, dissolved in water or in saline, and filtered as described above. […]"}, "H-1": {"molecular_target": "T1, H-1 (Rattus norvegicus, UniProt P31390)", "T1 construct": "two intradermal injections of histamine; from tissue; host or cells: dorsal skin of live male rats (in vivo)", "T1 sequence (P31390 whole entry)": "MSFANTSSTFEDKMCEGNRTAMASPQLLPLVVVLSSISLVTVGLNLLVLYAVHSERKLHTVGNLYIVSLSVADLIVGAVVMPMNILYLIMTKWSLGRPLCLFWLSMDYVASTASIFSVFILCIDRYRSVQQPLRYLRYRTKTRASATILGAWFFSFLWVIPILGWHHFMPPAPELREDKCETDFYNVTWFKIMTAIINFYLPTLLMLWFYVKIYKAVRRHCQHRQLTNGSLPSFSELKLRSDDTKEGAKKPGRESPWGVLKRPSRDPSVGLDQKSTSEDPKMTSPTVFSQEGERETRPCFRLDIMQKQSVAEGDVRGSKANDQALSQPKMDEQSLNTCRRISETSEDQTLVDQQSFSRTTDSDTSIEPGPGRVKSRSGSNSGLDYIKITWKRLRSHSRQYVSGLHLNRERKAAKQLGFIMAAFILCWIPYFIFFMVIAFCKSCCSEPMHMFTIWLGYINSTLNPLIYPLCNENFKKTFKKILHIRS", "test": "Antihistaminic (H-1) activity in vivo after oral administration (histamine wheal)", "design": "species or system rats", "settings": "for Histamine (wheal area): 60 min before intradermal histamine; for Saline (wheal area): intradermal histamine vehicle", "procedure": "Male rats (150-200 g) were starved overnight and twelve hours after dorsal depilation, the animals were dosed orally with the test compound(s). Four dorsal test areas were marked with permanent ink. Exactly 60 min after the dosing of the test compound, two intradermal injections of histamine (50 microliter; 1.0 mg/ml of histamine di-HCl) were performed, one on each side on the back of the animal. Two intradermal injections of the vehicle for the histamine solution were also performed. Evans blue dye (20 mg/kg) was injected iv 1 minute prior to the intra-dermal injections of histamine and the histamine vehicle. Twenty minutes were allowed for the wheal response to fully develop, whereupon the animals were euthanized and the dorsal skin containing the intradermal wheals was deflected. The blue spotted areas were measured in square millimeters and the duplicate vehicle wheal responses were averaged. […] The inhibition was calculated in percent difference from the corresponding vehicle baseline value."}, "[4]": {"settings": "water, read-out: water solubility"}}, "note": "Read-outs that look alike come from different tables or passages of the source.", "data": [{"smiles": "CN1CCC(=C2c3ccccc3CC(=O)c3sccc32)CC1", "note": "[ketotifen]", "values": [{"measurement": "solubility", "setting": "[1]; [4]", "result": "~12.5", "unit": "mg/mL"}, {"measurement": "IC50", "setting": "[2]", "result": 91, "unit": "µM"}]}, {"smiles": "O=C1Cc2ccccc2C(=C2CCNCC2)c2ccsc21", "note": "[norketotifen FB]", "values": [{"measurement": "solubility of free base in non-aqueous solvents", "setting": "[1]; propylene glycol, glycerin, ethanol and isopropyl alcohol", "result": "can be dissolved"}]}, {"smiles": "O=C1Cc2ccccc2C(=C2CCNCC2)c2ccsc21", "note": "[norketotifen]", "values": [{"measurement": "soluble in polyethylene glycol (PEG 300)", "setting": "[1]; PEG 300", "result": "up to 0.15 percent w/w"}, {"measurement": "solubility", "setting": "[1]; pH 8.6, aqueous buffer, read-out: solubility of norketotifen in water", "result": 2.1, "unit": "mg/mL"}, {"measurement": "solubility", "setting": "[1]; pH 8.75, aqueous buffer, read-out: solubility of norketotifen in water", "result": "~1", "unit": "mg/mL"}, {"measurement": "soluble in propylene glycol", "setting": "[1]; propylene glycol", "result": "up to 1.0 percent by weight"}, {"measurement": "solubility", "setting": "[1]; propylene glycol, organic solvent or mixture, read-out: solubility of norketotifen in propylene glycol", "result": "~10", "unit": "mg/mL"}, {"measurement": "can be dissolved in water", "setting": "[1]; water", "result": "up to 0.216 percent by weight"}, {"measurement": "solubility", "setting": "[1]; [4]", "result": "~2.16", "unit": "mg/mL"}, {"measurement": "stability in solution formulations", "setting": "[3]", "result": "not stable"}, {"measurement": "ocular irritation (Draize; Kay and Calandra scoring)", "setting": "rabbit eyes", "result": "caused irritation"}, {"measurement": "inhibition at 1 mg/kg", "setting": "H-1; rat, po", "result": 6, "unit": "%"}, {"measurement": "inhibition at 10 mg/kg", "setting": "H-1; rat, po", "result": 83, "unit": "%"}, {"measurement": "inhibition at 50 mg/kg", "setting": "H-1; rat, po", "result": 100, "unit": "%"}, {"measurement": "absorption after oral administration", "setting": "H-1; rats, oral", "result": "well absorbed"}, {"measurement": "antihistaminic potency relative to diphenhydramine", "setting": "H-1; rats, oral", "result": "more potent than the reference compound"}, {"measurement": "Histamine effect", "setting": "H-1; rats, oral, 1 mg/kg", "result": 92, "unit": "mm^2"}, {"measurement": "Histamine (wheal area)", "setting": "H-1; rats, oral, 1 mg/kg", "result": "114 ± 8", "unit": "mm^2"}, {"measurement": "Saline (wheal area)", "setting": "H-1; rats, oral, 1 mg/kg", "result": "22 ± 1", "unit": "mm^2"}, {"measurement": "Histamine effect", "setting": "H-1; rats, oral, 10 mg/kg", "result": 17, "unit": "mm^2"}, {"measurement": "Histamine (wheal area)", "setting": "H-1; rats, oral, 10 mg/kg", "result": "39 ± 2", "unit": "mm^2"}, {"measurement": "Saline (wheal area)", "setting": "H-1; rats, oral, 10 mg/kg", "result": "22 ± 1", "unit": "mm^2"}, {"measurement": "Histamine effect", "setting": "H-1; rats, oral, 50 mg/kg", "result": 0, "unit": "mm^2"}, {"measurement": "Histamine (wheal area)", "setting": "H-1; rats, oral, 50 mg/kg", "result": "10 ± 1", "unit": "mm^2"}, {"measurement": "Saline (wheal area)", "setting": "H-1; rats, oral, 50 mg/kg", "result": "12 ± 1", "unit": "mm^2"}, {"measurement": "antihistaminic activity relative to ketotifen", "setting": "H-1; tested in vivo (Example 12)", "result": "about half of that of ketotifen"}, {"measurement": "IC50", "setting": "[2]", "result": 9.2, "unit": "µM"}, {"measurement": "activity relative to ketotifen in inhibiting granulocyte activation (anti-inflammatory)", "setting": "[2]; A23187-induced", "result": "about ten times more potent than ketotifen"}]}]}
